Laboratory results as given in patent publication US20240050431A1, “NEUROENDOCRINE DIFFERENTIATION IN IMIPRIDONE CANCER TREATMENT” (BROWN UNIVERSITY, priority 2022, published 2024).

How the values were obtained:
22RV1 = experiment: Protein expression of TRAIL pathway proteins, 22RV1; assay type: cell-based; settings: 22RV1 treated with ONC201 at IC50; 12, 24 and 48 hours
DU145 [1] = experiment: Protein expression of TRAIL pathway proteins, DU145; assay type: cell-based; settings: DU145 treated with ONC201 at IC50; 12, 24 and 48 hours
Description: FIGS. 2A-2C provide images showing NED marker expression in PC and SCLC.

DU145 [2] = experiment: CellTiter-Glo (CTG) viability assay, DU145; assay type: cell-based; settings: Homo sapiens, DU-145, 72 h
LNCaP = experiment: CellTiter-Glo (CTG) viability assay, LNCaP; assay type: cell-based; settings: Homo sapiens, 72 h
PC3 = experiment: CellTiter-Glo (CTG) viability assay, PC3; assay type: cell-based; settings: Homo sapiens, PC-3, 72 h
[3] = tested on: tumor cell lines (n=6) from prostate and small cell lung cancer tissues; experiment: CellTiter-Glo (CTG) viability assay, panel of tumor cell lines; settings: 6 PC and SCLC cell lines; varying drug concentrations, 72 hours

## Cc1ccccc1CN1C(=O)C2=C(CCN(Cc3ccccc3)C2)N2CCN=C12 [ONC201]
22RV1
  ATF4 protein expression: upregulation of ATF4 ISR pathway
  CLpX protein expression: decreased CLpX expression
DU145 [1]
  ATF4 protein expression: upregulation of ATF4 ISR pathway
  CLpX protein expression: decreased CLpX expression
DU145 [2]
  IC50: 3.11 µM
LNCaP
  IC50: 1.33 µM
PC3
  IC50: 3.02 µM
[3]
  Sensitivity and cytotoxicity (viability): shows sensitivity and cytotoxicity to tumor cell lines
